TGI and GI50 data for twelve molecules are collected here from PubChem BioAssay (NCI).

Assay in all cases: DTP human tumour cell line panel, 48 h
The subject of assay [1] is BT-549 breast.
Assay [2] has as its system COLO 205 colon.
The subject of assay [3] is HCC-2998 colon.
In assay [4] the test system is HS 578T breast.
The subject of assay [5] is MCF7 breast.
Assay [6] has as its system NCI-H23 lung.
Assay [7] concerns PC-3 prostate.
Assay [8] has as its system SF-539 CNS.
Assay [9] deals with SK-OV-3 ovarian.
Assay [10] relates to TK-10 renal.

Where “and” joins values, the source holds several entries; their conditions need not be identical. Identical values can stand only once.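 Protocol summary: plate cells (96-well), add compound at 5 concentrations, incubate 48 h, interpolate endpoints linearly. GI50 is the concentration that inhibits growth by half. TGI: total growth inhibition.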

The term TGI denotes the concentration at which net growth stops. In the case of `O=C1c2c(Br)sc(Br)c2[C@H]2OC(=S)N[C@@H]12`, the TGI in [1] was 23.8 µM; in [2] it was 5.58 µM; in assay [3] it was 22.4 µM; in assay [4] it was over 52.7 µM; in [5] it was 23.2 µM; in assay [6], 15.1 µM. The TGI in assay [7] amounted to 14 µM; in assay [8], 31.2 µM; in [9] it was 29.9 µM; in assay [10], 35 µM.
For the molecule `O=C1C=CC(=O)c2c(O)c(N3CCN(c4ncccn4)CC3)c(Cl)c(O)c21`, the TGI in [1] was 3.86 µM; in assay [2], 3.36 µM; in assay [3] it was 25.7 µM; in assay [4] it was 7.12 µM; in assay [5] it was 3.32 µM; in [6], 4.59 µM. The TGI is 8.88 µM in assay [7], 3.63 µM in assay [8], 38.6 µM in assay [9] and 3.47 µM in assay [10].
In the case of `O=C1CCCC2=C1CC1=C(CCCC1=O)N2c1ccc(-c2ccccc2)cc1`, the concentration for total growth inhibition (TGI) in assay [1], in assay [2], in assay [3], in assay [4], in [5] and in [6] was over 100 µM each time. For the same molecule, the TGI in assay [7], in [8], in assay [9] and in assay [10] was over 100 µM each time.
With `CCC(C)C(NC(=O)C(CCCC[N+](=N)N)NC(=O)C(CCCC[N+](=N)N)NC(=O)c1ccc(OC)cc1)C(=O)NC(CCCC[N+](=N)N)C(=O)N1CCCC1C(=O)NC(CCCCN)C(=O)NC(CC(C)C)C(N)=O` (stereo not drawn), the concentration for total growth inhibition (TGI) in assay [1], in [2], in assay [3], in assay [4], in [5] and in assay [6] was over 100 µM each time. Also, the TGI in assay [7], in assay [8], in [9] and in assay [10] was over 100 µM throughout.
Regarding `CCCCCc1cc(CCCC)sc1-c1ccco1`, the TGI in assay [1], in assay [2], in assay [3], in assay [4], in assay [5] and in assay [6] was over 100 µM throughout. In addition, the TGI in assay [7], in assay [8], in [9] and in assay [10] was over 100 µM in each case.
On to `C=CCN(c1cc(OC)c2[nH]c(C(=O)O)c(C)c2c1[N+](=O)[O-])S(C)(=O)=O`, for which the TGI in [1], in assay [2], in assay [3], in [4], in assay [5] and in assay [6] was over 100 µM each time. In addition, the TGI in assay [7], in [8], in assay [9] and in assay [10] was over 100 µM in each case.
On to `O=C(O)CCSc1ncnc2nc[nH]c12`, for which the TGI in assay [1], in assay [2], in assay [3], in [4], in assay [5] and in [6] was over 100 µM each time. The concentration for total growth inhibition (TGI) in assay [7], in assay [8], in [9] and in assay [10] was over 100 µM each time.
By GI50 is commonly meant the concentration giving 50% growth inhibition. Take `O=C(CCl)Nc1ccc(C(=O)N/N=C/c2ccc(Cl)cc2)cc1`: the TGI is 3.53 µM and 4.11 µM in assay [1]; 4.05 µM and 1.44 µM in assay [2]; 22.5 µM in [3]; 6.7 µM in assay [4]; 22.6 µM in [5]; 3.19 µM and 6.87 µM in assay [6]. In addition, the TGI in assay [7] was 3.53 µM and 21.9 µM; in [8] it was 3.29 µM and 4.35 µM; in assay [9], 8.02 µM and 24.7 µM; in assay [10], 3.91 µM and 29.5 µM. Besides, the GI50 in assay [2] is 2.01 µM; in assay [3], 3.85 µM; in assay [5] it was 10 µM; in assay [6], 1.62 µM; in assay [7] it was 10.1 µM; in assay [8], 1.75 µM. Further, the GI50 in assay [9] is 12.3 µM; in assay [10], 1.83 µM.
Take `Clc1sc(Cl)c2c1[C@H](Br)C[C@@H]2Cl`: the TGI in assay [1] was 40.3 µM; in [2], 44.3 µM; in assay [3], over 100 µM; in assay [4] it was 49.8 µM; in assay [5] it was 50.8 µM; in assay [6], 43.2 µM. Also, the TGI in [7] is over 100 µM; in assay [8], 37.1 µM; in [9], over 100 µM; in assay [10], 87.7 µM.
In the case of `CCOP(=O)(CC1OC(CO)C(O)C1O)OCC` (stereo not drawn), the TGI in [1] was over 100 µM; in assay [2], over 100 µM; in [3] it was over 100 µM; in assay [4] it was over 100 µM; in [5] it was over 100 µM; in assay [6], over 64.1 µM. The TGI in [7], in assay [8], in assay [9] and in assay [10] was over 100 µM throughout.
With `O=C1c2cccnc2C(=O)c2c1nc1ccccc1c2-c1ccc2c3c(nc4ccccc42)C(=O)c2cccnc2-c13`, the TGI is 12.7 µM in assay [1]; 5.68 µM in [2]; 9.28 µM in [3]; 11.1 µM in [4]; 8.05 µM in [5]; 2.67 µM in assay [6]. For the same molecule, the TGI in [7] came to 37.2 µM; in assay [8] it was 7.49 µM; in assay [9], 18.5 µM; in assay [10], 19.1 µM.
For the molecule `COC(=O)[C@@H]1[C@H]2CC[C@]3(C)[C@@H](OC(C)=O)CC[C@H]3[C@@H]2CC[C@H]1C1(C)SCCS1`, the TGI in assay [1] amounted to 46.2 µM; in [2], 29.3 µM; in [3], 86.2 µM; in assay [4] it was 74.4 µM; in [5] it was 83 µM; in assay [6], 86.7 µM. In addition, the TGI in assay [7] was 86 µM; in assay [8], over 100 µM; in assay [9], over 100 µM; in assay [10], over 100 µM.
